Measured values published in the supplement of paper PMC10331698.
± gives the standard deviation of the averaged measurements.

What was measured:
Assay in all cases: level (log10 ratio to DMSO vehicle control); higher = higher biomarker level / cell amount than vehicle control
Perfluoropropanoic acid = compound: O=C(O)C(F)(F)C(F)(F)F [Perfluoropropanoic acid]; details: in DMSO
Description: (§1)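 BioMAP Diversity Plus panel of 12 human primary cell co-culture systems (3C, 4H, LPS, SAg, BT, BF4T, BE3C, CASM3C, HDF3CGF, KF3CT, MyoF, Mphg). Compounds were added 1 h before stimulation and left for 24 h (MyoF 48 h; BT 72 h for soluble read-outs or 6 d for IgG). Biomarkers were read by ELISA, cytotoxicity by SRB, PBMC viability and proliferation by Alamar Blue. Each well value was divided by the mean of 8 DMSO control wells on the same plate and log10 transformed; duplicate blinded samples were tested at 4 concentrations.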

[1] = compound: C=CC(=O)OCC(F)(F)C(F)(F)C(F)(F)C(F)(F)C(F)(F)C(F)(F)C(F)(F)F [1H,1H-Perfluorooctyl acrylate]; details: in DMSO
Description: as §1

[2] = compound: OCCCC(F)(F)C(F)(F)C(F)(F)C(F)(F)C(F)(F)C(F)(F)C(F)(F)F [7:3 Fluorotelomer alcohol]; details: 6700 nM; in DMSO
Description: as §1

[3] = compound: FC(F)C(F)(F)COCC1CO1 [((2,2,3,3-Tetrafluoropropoxy)methyl)oxirane]; details: in DMSO
Description: as §1

[4] = compound: CCN(CCO)S(=O)(=O)C(F)(F)C(F)(F)C(F)(F)C(F)(F)C(F)(F)C(F)(F)C(F)(F)C(F)(F)F [N-Ethyl-N-(2-hydroxyethyl)perfluorooctanesulfonamide]; details: in DMSO
Description: as §1

Perfluorodecanoic acid = compound: O=C(O)C(F)(F)C(F)(F)C(F)(F)C(F)(F)C(F)(F)C(F)(F)C(F)(F)C(F)(F)C(F)(F)F [Perfluorodecanoic acid]; details: in DMSO
Description: as §1

Heptafluorobutyramide = compound: NC(=O)C(F)(F)C(F)(F)C(F)(F)F [Heptafluorobutyramide]; details: in DMSO
Description: as §1

| Test System | level (log10) (Perfluoropropanoic acid; 6700 nM) | level (log10) (Perfluoropropanoic acid; 20000 nM) | level (log10) (Perfluoropropanoic acid; 60000 nM) | level (log10) ([1]; 6700 nM) | level (log10) ([1]; 20000 nM) | level (log10) ([1]; 60000 nM) | level (log10) [2] | level (log10) ([3]; 6700 nM) | level (log10) ([3]; 20000 nM) | level (log10) ([3]; 60000 nM) | level (log10) ([4]; 6700 nM) | level (log10) ([4]; 20000 nM) | level (log10) (Perfluorodecanoic acid; 6700 nM) | level (log10) (Perfluorodecanoic acid; 20000 nM) | level (log10) (Heptafluorobutyramide; 6700 nM) | level (log10) (Heptafluorobutyramide; 20000 nM) | level (log10) (Heptafluorobutyramide; 60000 nM) |
| --- | --- | --- | --- | --- | --- | --- | --- | --- | --- | --- | --- | --- | --- | --- | --- | --- | --- |
| BT:sIL-17A | 0.0325 ± 0.0064 | -0.051 ± 0.12 | -0.065 ± 0.15 | -0.242 ± 0.26 | -0.141 ± 0.05 | -0.409 ± 0.18 | -0.0585 ± 0.17 | 0.0715 ± 0.032 | -0.008 ± 0.064 | -0.115 ± 0.03 | 0.122 ± 0.083 | -0.631 ± 0.21 | -0.0525 ± 0.0092 | -0.0075 ± 0.17 | -0.0055 ± 0.22 | -0.177 ± 0.22 | 0.058 ± 0.082 |
| LPS:SRB | -0.0125 ± 0.00071 | -0.0035 ± 0.013 | -0.0065 ± 0.0064 | -0.006 ± 0.0028 | -0.0095 ± 0.0078 | -0.012 ± 0.016 | -0.002 | -0.0145 ± 0.0035 | -0.005 | -0.0105 ± 0.0092 | -0.0345 ± 0.0035 | -0.084 ± 0.02 | 0.01 ± 0.0071 | 0.003 ± 0.0042 | -0.0115 ± 0.015 | -0.009 ± 0.0071 | -0.002 ± 0.0071 |
| BT:sIL-17F | 0.0335 ± 0.0035 | 0.0335 ± 0.023 | -0.0045 ± 0.052 | -0.0975 ± 0.16 | -0.324 ± 0.11 | -0.372 ± 0.063 | 0.0115 ± 0.056 | -0.0295 ± 0.12 | 0.001 ± 0.13 | 0.0005 ± 0.061 | -0.0225 ± 0.029 | -0.299 ± 0.037 | 0.019 ± 0.016 | 0.0345 ± 0.13 | -0.001 ± 0.035 | -0.0165 ± 0.018 | -0.006 ± 0.03 |
| BF4T:CCL26/Eotaxin-3 | -0.004 ± 0.031 | -0.0105 ± 0.04 | 0.03 ± 0.044 | -0.008 ± 0.016 | -0.019 ± 0.03 | -0.036 ± 0.031 | -0.088 ± 0.17 | 0.005 ± 0.033 | 0.0055 ± 0.052 | 0.031 ± 0.05 | 0.0905 ± 0.029 | 0.141 ± 0.0028 | -0.083 ± 0.038 | -0.509 ± 0.029 | 0.0165 ± 0.022 | -0.0035 ± 0.0021 | 0.0045 ± 0.012 |
| BF4T:MMP-1 | 0.003 ± 0.0071 | 0.0035 ± 0.029 | 0.009 ± 0.033 | 0.009 ± 0.021 | 0.0065 ± 0.0092 | 0.006 ± 0.0042 | 0.0005 ± 0.018 | 0.016 ± 0.0085 | 0.007 ± 0.02 | 0.03 ± 0.021 | 0.015 | 0.0095 ± 0.0078 | -0.0015 ± 0.0035 | -0.201 ± 0.011 | 0.0065 ± 0.025 | 0.003 ± 0.031 | 0.003 ± 0.0071 |
| BE3C:HLA-DR | -0.026 ± 0.0085 | -0.012 ± 0.024 | 0.016 ± 0.016 | -0.0055 ± 0.005 | -0.0025 ± 0.005 | 0.0055 ± 0.012 | 0.0045 ± 0.029 | 0.001 ± 0.0099 | -0.0055 ± 0.0035 | -0.07 ± 0.14 | -0.0445 ± 0.013 | -0.115 ± 0.031 | -0.0525 ± 0.022 | -0.842 ± 0.04 | -0.0065 ± 0.005 | 0.0245 ± 0.012 | -0.009 ± 0.0099 |
| 4H:CCL2/MCP-1 | -0.0455 ± 0.022 | -0.0145 ± 0.039 | 0.0285 ± 0.039 | -0.0145 ± 0.00071 | -0.015 ± 0.0028 | 0.0165 ± 0.026 | 0.025 ± 0.0099 | 0.021 ± 0.023 | -0.0005 ± 0.042 | 0.0235 ± 0.066 | -0.007 ± 0.0099 | -0.159 ± 0.044 | -0.014 ± 0.0057 | -0.0255 ± 0.03 | -0.026 ± 0.013 | -0.0325 ± 0.022 | 0.004 ± 0.095 |
| 3C:CXCL8/IL-8 | 0.007 ± 0.03 | -0.001 ± 0.02 | 0.0255 ± 0.047 | 0.0075 ± 0.013 | -0.008 ± 0.0042 | 0.016 ± 0.03 | 0.0075 ± 0.0035 | -0.0255 ± 0.005 | -0.0275 ± 0.0021 | 0.003 ± 0.042 | 0.02 ± 0.044 | -0.0985 ± 0.1 | 0.009 ± 0.013 | 0.0155 ± 0.021 | 0.008 ± 0.0071 | -0.0035 ± 0.016 | 0.0105 ± 0.011 |
